Experimental data reported in ChEMBL document CHEMBL5316374, “Forrestiacids E-K: Further [4 + 2]-Type Triterpene-Diterpene Hybrids as Potential ACL Inhibitors from the Vulnerable Conifer Pseudotsuga forrestii” (J Nat Prod, 2023).

Target: T1, ATP-citrate synthase (Homo sapiens, UniProt P53396)
T1 sequence (P53396 whole entry): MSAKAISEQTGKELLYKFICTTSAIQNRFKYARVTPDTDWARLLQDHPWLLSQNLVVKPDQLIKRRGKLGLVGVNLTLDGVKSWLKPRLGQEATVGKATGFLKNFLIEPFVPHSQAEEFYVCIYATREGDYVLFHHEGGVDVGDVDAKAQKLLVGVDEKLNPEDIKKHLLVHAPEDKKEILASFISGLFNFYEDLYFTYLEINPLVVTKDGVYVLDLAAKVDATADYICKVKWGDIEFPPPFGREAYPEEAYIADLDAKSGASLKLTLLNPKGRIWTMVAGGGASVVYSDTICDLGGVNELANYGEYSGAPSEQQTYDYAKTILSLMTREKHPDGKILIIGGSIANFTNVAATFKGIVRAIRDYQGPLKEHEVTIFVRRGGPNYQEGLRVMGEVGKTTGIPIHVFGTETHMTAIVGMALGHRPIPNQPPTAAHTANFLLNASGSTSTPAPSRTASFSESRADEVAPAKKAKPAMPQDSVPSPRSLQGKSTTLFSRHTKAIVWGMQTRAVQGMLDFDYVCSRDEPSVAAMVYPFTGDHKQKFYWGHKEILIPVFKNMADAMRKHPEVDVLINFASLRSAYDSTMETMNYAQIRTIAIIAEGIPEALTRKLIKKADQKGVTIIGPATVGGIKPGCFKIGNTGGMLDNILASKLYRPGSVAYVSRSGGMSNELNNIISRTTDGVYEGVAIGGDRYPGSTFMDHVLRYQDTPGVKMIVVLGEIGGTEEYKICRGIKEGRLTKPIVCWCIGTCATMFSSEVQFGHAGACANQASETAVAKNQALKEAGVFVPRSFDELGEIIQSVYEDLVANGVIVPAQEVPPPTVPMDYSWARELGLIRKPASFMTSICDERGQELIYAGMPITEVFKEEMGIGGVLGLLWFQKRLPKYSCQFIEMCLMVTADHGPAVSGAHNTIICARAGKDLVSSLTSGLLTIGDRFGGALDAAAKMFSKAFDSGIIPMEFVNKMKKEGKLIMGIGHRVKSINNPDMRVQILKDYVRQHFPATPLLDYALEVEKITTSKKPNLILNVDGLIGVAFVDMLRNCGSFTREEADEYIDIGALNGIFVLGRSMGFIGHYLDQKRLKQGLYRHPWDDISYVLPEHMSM
Test: Inhibition of ACL (unknown origin) incubated for 30 mins in presence of ATP by luminescence based ADP-Glo kinase assay

SMILES	IC50 [µM]
C=C1CC[C@@](C)([C@H](C)CC(=O)C[C@](C)(C(=O)O)[C@]2(C(=C)C)C=C3CC[C@@H]4[C@](C)(CCC[C@@]4(C)C(=O)O)[C@H]3CC2)[C@@]12CCC1=C2CC[C@H]2C(C)(C)C(=O)CC[C@]12C	11
CC(C)C1=CC[C@H]2C(=C1)CC[C@@H]1[C@]2(C)CCC[C@@]1(C)C(=O)O	> 40
C=C1CC[C@@](C)([C@H](C)CC(=O)C[C@]2(C(=O)O)C[C@H]3C[C@@H]4[C@@]5(C)CCC[C@@](C)(C(=O)O)[C@@H]5CC[C@]42C=C3C(C)C)[C@@]12CCC1=C2CC[C@@H]2[C@@H]1CCC(=O)C2(C)C	1.8
C=C1CC[C@@](C)([C@H](C)CC(=O)[C@@H]2[C@H]3C[C@@H]4[C@@]5(C)CCC[C@@](C)(C(=O)O)[C@@H]5CC[C@@]4(C=C3C(C)C)[C@@]2(C)C(=O)O)[C@@]12CCC1=C2CC[C@H]2C(C)(C)C(=O)CC[C@]12C	3.6
C=C1CC[C@@](C)([C@H](C)CC(=O)C[C@]2(C(=O)O)C[C@H]3C[C@@H]4[C@@]5(C)CCC[C@@](C)(C(=O)O)[C@@H]5CC[C@]42C=C3C(C)C)[C@@]12CCC1=C2CC[C@@H]2[C@@H]1CC[C@H](O)C2(C)C	7.1
C=C1CC[C@@H]([C@H](C)CC(=O)/C=C(\C)C(=O)O)[C@@]12CCC1=C2CC[C@H]2C(C)(C)C(=O)CC[C@]12C	34.9
C=C1CC[C@@](C)([C@H](C)CC(=O)[C@H]2[C@H]3C[C@@H]4[C@@]5(C)CCC[C@@](C)(C(=O)O)[C@@H]5CC[C@]45C(OC(=O)[C@]25C)C3=C(C)C)[C@@]12CCC1=C2CC[C@H]2C(C)(C)C(=O)CC[C@]12C	10.8

Further compounds by falling IC50, results first:

IC50 [µM]	SMILES
22.8	C=C1CC[C@@](C)([C@H](C)CC(=O)C[C@@](C)(C(=O)O)[C@]2(C(=C)C)C=C3CC[C@@H]4[C@](C)(CCC[C@@]4(C)C(=O)O)[C@H]3CC2)[C@@]12CCC1=C2CC[C@H]2C(C)(C)C(=O)CC[C@]12C
6.2	CC(C)C1=C[C@@]23CC[C@@H]4[C@](C)(CCC[C@@]4(C)C(=O)O)[C@H]2C[C@@H]1[C@H](C(=O)C[C@@H](C)[C@H]1CC[C@@]2(C)C4=C(CC[C@]12C)[C@H]1CCC(=O)C(C)(C)[C@@H]1CC4)[C@@]3(C)C(=O)O
4.1	C=C1CC[C@@](C)([C@H](C)CC(=O)[C@H]2[C@H]3C[C@@H]4[C@@]5(C)CCC[C@@](C)(C(=O)O)[C@@H]5CC[C@@]4(C=C3C(C)C)[C@]2(C)C(=O)O)[C@@]12CCC1=C2CC[C@H]2C(C)(C)C(=O)CC[C@]12C
3.3	C=C1CC[C@@](C)([C@H](C)CC(=O)C[C@@]2(C(=O)O)C[C@H]3C[C@@H]4[C@@]5(C)CCC[C@@](C)(C(=O)O)[C@@H]5CC[C@]42C=C3C(C)C)[C@@]12CCC1=C2CC[C@@H]2[C@@H]1CCC(=O)C2(C)C
2.6	CC(C)C1=C[C@@]23CC[C@@H]4[C@](C)(CCC[C@@]4(C)C(=O)O)[C@H]2C[C@@H]1C[C@@]3(CC(=O)C[C@@H](C)[C@H]1CC[C@@]2(C)C3=C(CC[C@]12C)[C@H]1CCC(=O)C(C)(C)[C@@H]1CC3)C(=O)O
0.46	COc1ccc(-c2ccccc2)cc1NS(=O)(=O)c1cc(Cl)cc(Cl)c1O
